These are literature values, as cited in patent US20040170683A1, “Tablets comprising modafinil” (priority 2003, published 2004).

The structures appear in SMILES notation.

For data set [1] the following is noted: capsules containing the finer particles versus capsules containing the coarser particles.
For data set [2] the following is noted: oral, human trials; median particle size between 30 and 50 microns versus between 80 and 150 microns.

Regarding `NC(=O)C[S+]([O-])C(c1ccccc1)c1ccccc1` (centres unmarked) [modafinil, Modafinil], the dissolution of capsules entry in data set [1] is given as “substantially faster”. The extent of absorption entry in data set [2] is “greater extent of absorption”.
